From patent publication US10239957B2, “Peptide containing conjugates for dual molecular delivery of oligonucleotides” (Merck Sharp & Dohme Corp., priority 2013, dated 2019)
Where no end group is shown, it is not given here. [ ]: non-standard residue; d: D form. TGN = not defined here

How the values were obtained:
[1] = tested on: CTNNB1; experiment: In vivo evaluation in mice: liver mRNA knockdown measurement
Procedure: Female CD-1 mice (Charles River) were injected in accordance with either a sequential dosing paradigm or a co-dosing paradigm. In the sequential dosing paradigm, the targeted siRNA (SCE) is dosed at t=0 and the targeted peptide is separately dosed up to 2 hr before the SCE (−2 hr) or up to 24 hr after the SCE (+24 hr). In the co-dosing paradigm, the SCE and peptides are co-formulated and dosed together in the same formulation as a single injection at t=0. The mice were dosed either by intravenous (i.v.) or subcutaneous (s.c.) injection of SCE and peptide. For the i.v. doses, the compounds were injected into the tail vein of the mice. For the s.c. doses, the compounds were injected in the subcutaneous space on the back of the mouse between the shoulder blades. At the indicated harvest times (measured from t=0 when the siRNA was dosed, regardless of when the peptide was dosed), the animals were sacrificed and 3 mm liver punches were collected, preserved in RNAlater (Ambion), and stored at 4° C. Separate 5 mm liver punches were collected, placed in 96-well plates, frozen on dry ice, and stored at −80° C. until use.
The 3 mm liver punches were removed from RNAlater and homogenized in Trizol (Invitrogen) using a bead mill tissue lyser (Qiagen); disruption was performed for two 5-minute cycles at 30 Hz. RNA extraction was performed using 1-bromo-2-chloropropane (Acros Organics) and total RNA was isolated from the aqueous phase using the MagMax RNA isolation method (Ambion). […] TaqMan qPCR analysis was performed with an ABI 7900 Real-Time PCR System using TaqMan Fast Advanced Master Mix (Applied Biosystems). All TaqMan probes and primers for CTNNB1 and PPIB (housekeeping gene) were purchased from Applied Biosystems as pre-validated gene expression assays. Results are calculated by the comparative Ct method, where the difference between the CTNNB1 Ct value and the PPIB Ct value (ΔCt) is calculated and then further normalized relative to the PBS control by taking a second difference (ΔΔCt), as described previously (1).

[2] = tested on: CTNNB1; experiment: In vitro DMD assay: mRNA silencing enhancement by peptide conjugates after siRNA-IV treatment; type: cell-based; conditions: primary mouse hepatocytes, siRNA-IV 125 nM baseline
In short: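 Primary mouse hepatocytes were pretreated 1 h with siRNA-IV at 125 nM, then exposed ~16 h to peptide conjugates across a dose range, washed and held 24 h more. Target mRNA by RT-qPCR, normalized to PPIB (dddCt), expressed as enhancement over siRNA-IV alone relative to untreated cells.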

[3] = Table 8 (linkage comparison), TGN-L-siRNA-II 0.25 mg/kg, peptide 1 mg/kg
[4] = Table 8 (linkage comparison), TGN-L-siRNA-II 0.25 mg/kg, peptide 3 mg/kg
[5] = mice, TGN-L-siRNA-II 0.25 mg/kg IV, peptide 1 mg/kg IV 15 min after siRNA
[6] = mice, TGN-L-siRNA-II 0.25 mg/kg IV, peptide 3 mg/kg IV 15 min after siRNA
[7] = mice, TGN-L-siRNA-III 0.25 mg/kg IV, peptide 2 mg/kg IV 15 min after siRNA
[8] = mice, TGN-L-siRNA-III 0.25 mg/kg IV, peptide 10 mg/kg IV 15 min after siRNA
[9] = mice, TGN-L-siRNA-III 0.5 mg/kg IV, peptide 5 mg/kg IV 15 min after siRNA
[10] = mice, TGN-L-siRNA-III 0.25 mg/kg IV, peptide 5 mg/kg IV 15 min after siRNA

TGN-CDM-SEQ ID NO: 1801 (D): TGN-CDM peptide; peptide glfgeieelieeglenlidwgng; C8 made from the same all(D) sequence (G[dL][dF]G[dE][dI][dE][dE][dL][dI][dE][dE]G[dL][dE][dN][dL][dI][dD][dW]G[dN]G; also: TGN-CDM conjugate; listed as Homo sapiens)
In vivo mRNA knockdown [1, 3]: 23.0% | In vivo mRNA knockdown [1, 4]: 24.9%

TGN-ECL-SEQ ID NO: 1802 (D): TGN-ECL-peptide; peptide gffgaiwefihsil (G[dF][dF]G[dA][dI][dW][dE][dF][dI][dH][dS][dI][dL]; also: TGN-ECL conjugate; listed as Homo sapiens)
In vivo mRNA knockdown [1, 3]: 28.7% | In vivo mRNA knockdown [1, 4]: 64.0%

TGN-S-S- SEQ ID NO: 1738 (D) (G[dL][dF]G[dE][dI][dE][dE][dL][dI][dE][dE]G[dL][dE][dN][dL][dI][dD][dW]G[dN]G[dL][dA][dE][dL][dA][dE][dA][dL][dE][dA][dL][dA][dA]GG[dS][dC]; not fully specified (residue 40); also: TGN attached via disulfide; listed as Homo sapiens)
In vivo mRNA knockdown [1, 5]: 25% | In vivo mRNA knockdown [1, 6]: 44%

TGN-S-S-SEQ ID NO: 935 (L) (C(TGN)GFFGEIAELIWEGLKNLIDWWNG; reading uncertain; also: TGN linked to Cys via disulfide, TGN not defined; listed as Homo sapiens)
In vivo mRNA knockdown [1, 7]: 17% | In vivo mRNA knockdown [1, 8]: 23%

TGN-S-S-SEQ ID NO: 1248 (L) (C(TGN)FLEELWELLEHLL; reading uncertain; also: TGN disulfide conjugate at Cys1; listed as Homo sapiens)
In vivo mRNA knockdown [1, 9]: 24%

TGN-S-S-SEQ ID NO: 1403 (L) (C(TGN)GLLEEIEELLEEGLENLIDWWNS; reading uncertain; also: TGN disulfide conjugate at Cys1; listed as Homo sapiens)
In vivo mRNA knockdown [1, 7]: 22% | In vivo mRNA knockdown [1, 8]: 24%

TGN-S-S-SEQ ID NO: 1489 (D) ([dC][dL][dE][dL][dW][dL][dE][dH][dL][dF][dL][dE][dL][dE]; not fully specified (residue 1); also: TGN attached via disulfide; listed as Homo sapiens)
In vivo mRNA knockdown ([1]; mice, TGN-L-siRNA-III 0.5 mg/kg IV, peptide 2 mg/kg IV 15 min after siRNA): 37% | In vivo mRNA knockdown ([1]; mice, TGN-L-siRNA-III 0.5 mg/kg IV, peptide 10 mg/kg IV 15 min after siRNA): 26% | In vivo mRNA knockdown ([1]; mice, TGN-L-siRNA-III 0.5 mg/kg IV, peptide 25 mg/kg IV 15 min after siRNA): 34%

TGN-S-S-SEQ ID NO: 1516 (L) (C(TGN)GLFAEIEELLEEGLENLIDWWNG; reading uncertain; also: TGN disulfide conjugate at Cys1; listed as Homo sapiens)
In vivo mRNA knockdown [1, 10]: 14%

TGN-S-S-SEQ ID NO: 1643 (D) ([dC]G[dF][dF]G[dE][dI][dA][dE][dL][dI][dE][dE]G[dL][dK][dN][dL][dI][dD][dW]G[dN]G; not fully specified (residue 1); also: TGN attached via disulfide; listed as Homo sapiens)
In vivo mRNA knockdown [1, 8]: 41%

TGN-S-S-SEQ ID NO: 1716 (L) (C(TGN)GLFEELAGLLWHGLKNLIDWWNG; reading uncertain; also: TGN disulfide conjugate at Cys1; listed as Homo sapiens)
In vivo mRNA knockdown [1, 9]: 39%

TGN-S-S-SEQ ID NO: 1717(L): TGN-S-S-peptide; peptide CFLGALFHALSHLLENLIDWWNG (C(TGN)FLGALFHALSHLLENLIDWWNG; reading uncertain; also: TGN disulfide conjugate at Cys1; listed as Homo sapiens)
In vivo mRNA knockdown [1, 9]: 16%

TGN-S-S-SEQ ID NO: 1719 (L) (C(TGN)GLFAEIEELIWEGLENLIDWWNQ; reading uncertain; also: TGN disulfide conjugate at Cys1; listed as Homo sapiens)
In vivo mRNA knockdown [1, 10]: 25%

TGN-S-S-SEQ ID NO: 1725 (L) (C(TGN)SSAWWSYWPPVA; reading uncertain; also: TGN disulfide conjugate at Cys1; listed as Homo sapiens)
In vivo mRNA knockdown [1, 8]: 19%

TGN-S-S-SEQ ID NO: 1726(D): TGN-S-S-peptide; peptide CGLFAVIKKVASVIGGL ([dC]G[dL][dF][dA][dV][dI][dK][dK][dV][dA][dS][dV][dI]GG[dL]; not fully specified (residue 1); also: TGN attached via disulfide; listed as Homo sapiens)
In vivo mRNA knockdown [1, 8]: 23%

TGN-S-S-SEQ ID NO: 1727 (D): TGN-S-S-peptide; peptide CGLFAVIHHVASVIGGL ([dC]G[dL][dF][dA][dV][dI][dH][dH][dV][dA][dS][dV][dI]GG[dL]; not fully specified (residue 1); also: TGN attached via disulfide; listed as Homo sapiens)
In vivo mRNA knockdown [1, 8]: 26%

TGN-S-S-SEQ ID NO: 1728(D): TGN-S-S-peptide; peptide CGLFAVIEEVASVIGGL ([dC]G[dL][dF][dA][dV][dI][dE][dE][dV][dA][dS][dV][dI]GG[dL]; not fully specified (residue 1); also: disulfide to TGN peptide via Cys1; listed as Homo sapiens)
In vivo mRNA knockdown [1, 8]: 23%

TGN-S-S-SEQ ID NO: 1729 (L) (C(TGN)GPSQPTYPGDDAPVRDLIRFYRDLRRYLNVVTRHRY; reading uncertain; also: TGN linked to Cys via disulfide, TGN not defined; listed as Homo sapiens)
In vivo mRNA knockdown [1, 8]: 10%

TGN-S-S-SEQ ID NO: 1740 (D): TGN-S-S-peptide; peptide GLFEAIEGFIENGWEGLAELAEALEALAAGGSC (G[dL][dF][dE][dA][dI][dE]G[dF][dI][dE][dN]G[dW][dE]G[dL][dA][dE][dL][dA][dE][dA][dL][dE][dA][dL][dA][dA]GG[dS][dC]; not fully specified (residue 33); also: disulfide to TGN peptide via Cys33; listed as Homo sapiens)
In vivo mRNA knockdown [1, 5]: 23% | In vivo mRNA knockdown [1, 6]: 42%

TGN-S-S-Seq-ID-111 (D) ([dC][dF][dF]G[dA][dI][dW][dE][dF][dI][dK][dS][dI][dL][dE]G[dL][dI][dD][dW][dW][dY]G[dY]G[dH][dK][dK][dH][dH][dQ][dH][dR]; not fully specified (residue 1); also: TGN conjugated via disulfide at Cys1; listed as Homo sapiens)
In vitro dddCt (vs. baseline SCE dose) ([2]; Targeted peptide dose 5000 nM): −1.4

TGN-S-S-Seq-ID-115 (D) ([dC][dL][dH][dL][dL][dH][dH][dL][dL][dH][dH][dL][dH][dH][dL][dL][dH][dH][dL][dL][dH][dL][dL][dH][dH][dL][dL][dH][dH][dL]GGG[dR][dK][dK][dR][dR][dQ][dR][dR][dR][dP][dP][dQ]; not fully specified (residue 1); also: TGN conjugated via disulfide at Cys1; listed as Homo sapiens)
In vitro dddCt (vs. baseline SCE dose) ([2]; Targeted peptide dose 5000 nM): −0.17

TGN-S-SEQ ID NO: 1517 (L) (CGLFGEIEELIEEGLECITLIDWWNG; cysteine pairing not given here; also: TGN-S conjugate; listed as Homo sapiens)
In vitro dddCt (vs. baseline SCE dose) ([2]; Targeted peptide dose 25 nM): 0.54 | In vitro dddCt (vs. baseline SCE dose) ([2]; Targeted peptide dose 125 nM): 0.49 | In vitro dddCt (vs. baseline SCE dose) ([2]; Targeted peptide dose 625 nM): 0.48 | In vitro dddCt (vs. baseline SCE dose) ([2]; Targeted peptide dose 3125 nM): 0.33
